Source: patent publication US5559209A, “Regulator regions of G proteins” (The General Hospital Corporation, priority 1993, dated 1996)
Where no end group is shown, it is not given here.

Columns and labels:
Gi2 = molecular target: T1, Gi2 (Bos taurus, UniProt A7MBH9); assay: GTPγS binding assay, peptide 14-induced Gi2 activation; format: biochemical, bovine
T1 construct: trimeric Gi2 (i.e., Gi2 αβγ) purified from bovine brain to near homogeneity; from tissue; host or cells: bovine brain
Procedure: Materials and Methods The in vitro assays described below utilize the couplone portion of each of a number of G-coupled receptors, instead of an intact receptor molecule, as a means for activating the corresponding anticouplone or intact G-protein. Except as noted below, Gi2 used in this study was trimeric Gi2 (i.e., Gi2 αβγ) purified from bovine brain to near homogeneity (Katada et al., FEBS Lett. 213:353-358 (1987), stored in buffer A (20 mM hepes/NaOH (pH 7.4), 1 mM EDTA, and 0.7% CHAPS), and diluted≥10 fold for assays. The Gi2 used for the reconstitution experiment was trimeric Gi2 purified from bovine spleen to homogeneity and dissolved in buffer B (Morishita et al., 1989). Gi3 α (Morishita et al., Biochem. Biophys. Res. Commun. 172:249-255 (1990), was purified from bovine spleen and used in combination with 1.5-fold concentrated Gβγ (Katada et al., 1987). This preparation of Gi3 α was 10-20% contaminated by Gi1 α, but not by other G proteins. Trimeric Gs and Gβγ purified from bovine brain to near homogeneity (Katada et al., 1987) were also stored in buffer A.
GTPγS binding Assay--GTPγS binding to G proteins was assayed at 37° C. in 20 mM Hepes/NaOH buffer (pH 7.4) containing 130 μM MgCl2, 110 μM EDTA and 60 nM [^35 S]GTPγS, as described previously (Okamoto et al., 1990). GTPγS binding to polypeptides was negligible. The total amount of G protein was measured as maximal GTPγS binding at room temperature, as described (Okamoto et al., Cell 67:723-730, 1991a). [^35 S]GTPγS was purchased from DuPont-New England Nuclear. Binding of GTPγS to G proteins obeyed first-order kinetics according to the equation ln[(BT-B)/BT]=-kapp t, where B is the binding at time t and BT is the total binding observable at an infinite time. Thus, the apparent first-order rate constant for GTPγS binding (kapp), which is equal to the slope of the tangent to the GTPγS binding curve at time 0 and represents the actual GTPγS binding rate, was calculated from this equation.
In the experiment illustrated in FIG. 1A, 10 nM Gi2 was incubated with 30 μM peptide 14 (RVGLVRGEKARKGK; SEQ ID NO: 27), the couplone portion of the IGF-II receptor, in the presence of various concentrations of (.quadrature.) ACGi2 (DAVTDVIIKNNLKDC; SEQ ID NO: 3), (567 ) the control Gi2 α Glu297-Asp310 peptide (EAASYIQSKFEKLN; SEQ ID NO: 18), or (.diamond.) the control Gi2 α Lys346-Phe355 peptide (KNNLKDCGLF; SEQ ID NO: 19) for 5 min under the GTPγS binding assay conditions described above, and GTPγS binding to G proteins was measured. The effect of ACGi2 on Gi2 in the absence of peptide 14 is indicated by .box-solid.. Percent stimulation of GTPγS binding was calculated by subtracting the basal fractional binding and dividing by the stimulated fractional binding observed in the absence of ACGi2. The basal fractional binding (=0%) was 0.39 mol GTPγS binding/mol Gi /5 min (5 min^-1). The 100% increase represents the GTPγS binding of 0.85 (5 min^-1). Values in all figures represent the mean ±S.E. of three experiments.
To verify the notion that ACGi2 acts on Gi2 itself, and not on receptor sequences, two series of experiments were performed. First, the dose-response curve for peptide 14 action on Gi2 in the presence of various concentrations of ACGi2 was generated (FIG. 2A). Following incubation of 10 nM Gi2 with various concentrations of peptide 14 in the absence (.quadrature.) or presence of 10 μM (.diamond-solid.) or 30 μM (.box-solid.) ACGi2 for 5 min, GTPγS binding was assayed; fractional GTPγS binding to Gi2 is indicated in the figure.
The second series of experiments investigated the effect of ACGi2 on lower concentrations of Gi2 that had been activated by peptide 14 to the same extent (FIG. 2B). 1 nM Gi2 was incubated for 5 min with 3 μM peptide 14 in the presence of various concentrations of ACGi2, and GTPγS binding was measured. The fractional GTPγS binding at 0% and 100% in this experiment was 0.40 and 0.55 (5 min^-1), respectively. […]

mAChR-Gi2 coupling = molecular target: T2, mAChR-Gi2 coupling (Bos taurus, UniProt A7MBH9); assay: GTPγS binding rate in mAChR-Gi2 reconstituted phospholipid vesicles; format: biochemical, porcine mAChR, bovine Gi2; details: 30 μM ACGi2, 10 mM acetylcholine; read-out: inhibition of acetylcholine-induced Gi2 activation
T2 construct: trimeric Gi2 purified from bovine spleen to homogeneity; from tissue; host or cells: bovine spleen (Gi2); porcine brain (mAChR)
T2 sequence (A7MBH9 2-355 limits assumed): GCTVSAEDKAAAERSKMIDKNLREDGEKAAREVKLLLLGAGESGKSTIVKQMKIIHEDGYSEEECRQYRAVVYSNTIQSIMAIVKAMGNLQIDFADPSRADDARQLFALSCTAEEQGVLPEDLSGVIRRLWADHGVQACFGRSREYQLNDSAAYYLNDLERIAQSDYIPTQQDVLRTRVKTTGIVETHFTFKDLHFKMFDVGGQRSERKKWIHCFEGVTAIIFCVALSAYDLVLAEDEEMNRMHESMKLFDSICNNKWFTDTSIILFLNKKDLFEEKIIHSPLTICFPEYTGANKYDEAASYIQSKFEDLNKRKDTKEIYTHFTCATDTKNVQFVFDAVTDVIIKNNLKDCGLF
T2 sequence (P62871 2-340 partner limits assumed): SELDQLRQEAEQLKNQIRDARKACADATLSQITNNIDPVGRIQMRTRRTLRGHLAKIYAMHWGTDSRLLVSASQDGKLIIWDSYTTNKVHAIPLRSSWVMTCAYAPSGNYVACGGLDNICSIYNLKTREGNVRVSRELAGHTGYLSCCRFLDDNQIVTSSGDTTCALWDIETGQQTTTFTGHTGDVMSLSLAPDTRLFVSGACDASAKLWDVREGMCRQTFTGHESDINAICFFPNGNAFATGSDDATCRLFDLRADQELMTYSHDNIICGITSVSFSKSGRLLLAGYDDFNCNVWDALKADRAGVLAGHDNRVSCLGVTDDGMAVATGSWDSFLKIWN
T2 sequence (P63212 2-68 partner limits assumed): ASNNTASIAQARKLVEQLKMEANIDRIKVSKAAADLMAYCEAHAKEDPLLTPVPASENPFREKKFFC
Procedure: Materials and Methods The in vitro assays described below utilize the couplone portion of each of a number of G-coupled receptors, instead of an intact receptor molecule, as a means for activating the corresponding anticouplone or intact G-protein. […]
GTPγS binding Assay--GTPγS binding to G proteins was assayed at 37° C. in 20 mM Hepes/NaOH buffer (pH 7.4) containing 130 μM MgCl2, 110 μM EDTA and 60 nM [^35 S]GTPγS, as described previously (Okamoto et al., 1990). […] The total amount of G protein was measured as maximal GTPγS binding at room temperature, as described (Okamoto et al., Cell 67:723-730, 1991a). […] Thus, the apparent first-order rate constant for GTPγS binding (kapp), which is equal to the slope of the tangent to the GTPγS binding curve at time 0 and represents the actual GTPγS binding rate, was calculated from this equation. […]

T1 sequence (A7MBH9 2-355 limits assumed): as the sequence (A7MBH9 2-355 limits assumed) above
T1 sequence (P62871 2-340 partner limits assumed): as the sequence (P62871 2-340 partner limits assumed) above
T1 sequence (P63212 2-68 partner limits assumed): as the sequence (P63212 2-68 partner limits assumed) above

## DAVTDVIIKNNLKDC [ACGi2, DAVTDVIIKNNLKDC]
Gi2; 10 nM Gi2, 30 μM peptide 14, 5 min, read-out: IC50, inhibition of peptide 14-induced GTPγS binding to Gi2
  IC50: ~3 µM
Gi2; at 3 μM ACGi2 (so in the source), read-out: inhibition of stimulation of Gi2
  inhibition at 3 µM: 100%
mAChR-Gi2 coupling
  inhibition at 30 µM: ~75%
